Measured values: patent US20210380952A1, “Method to Produce Virus in Cultured Cells Supplemented With Alpha-Ketoglutarate” (THE TRUSTEES OF PRINCETON UNIVERSITY, priority 2012, published 2021)
Like-named read-outs stand apart in the source and are kept apart here.

Key:
MRC5 cells = assay: Cytotoxicity evident upon visual inspection of treated infected cells; type: cell-based, human; settings: 100 μM fatty acid; VZV-infected MRC5 cells
VZV [1] = assay: Yield of cell-free VZV from infected MRC5 cells, plaque assay on ARPE-19 cells; type: cell-based, varicella zoster virus; settings: for VZV yield relative to no treatment (NT): 25 μM fatty acid plus 10 μM αT, 6 h after infection, sonicated immediately; for VZV yield relative to no treatment (NT) / VZV yield, fold change relative to no treatment (NT): MOI 1:50, 72 h; for VZV yield, fold change relative to no treatment (NT): added 6 hpi
Method: For this test, MRC5 cells (passage 20-25) were seeded at a density of 300.000 cell/100 mm culture dish and grown in 15 ml of DMEM containing 10% fetal calf serum plus 2 mM GlutaMAX (GIBCO®, GlutaMAX™) at 35° C. A lipid mixture (LM-1, 1 ml/liter medium, Sigma Aldrich #L5146) was added to the cells either at the time of seeding or 1 day after seeding. Three days later, the culture medium was replaced with 10 ml growth medium containing 50 mM sucrose as a stabilizer. The cells were further incubated for 3 days and growth medium was replaced with fresh medium containing no sucrose. After cells reached confluence, they were infected with VZV by adding infected cells (1 infected cell/50 uninfected cells; infected cells were from a preparation frozen in a solution of 10% DMSO plus 90% fetal calf serum and stored in liquid nitrogen). At the time of infection, the cultures were re-fed with DMEM containing 10% fetal calf serum plus 2 mM glutamax. Arachidonic acid (AA)+alpha-tocopherol (αT) or DHA+αT were added at the indicated times. 72 hours after infection, cells were washed twice with PBS, and incubated in 10 ml of PBS containing 50 mM ammonium chloride for 50 minutes at 4° C. The cells were harvested and frozen in PSGC buffer (Harper et al., Arch Virol 143:1163-70, 1998) at −80° C. Infectious virus was subsequently quantified by plaque assay of sonicated cells on ARPE-19 cells (American Type Culture Collection). Results are set out in FIG. 3.
Briefly, in these repeat experiments, MRC5 cells were infected with VZV at an MOI=1:50. AA, DHA, and αT were added to the cells at 6 hpi as indicated. 72 hours after infection, the cells were harvested into PSGC buffer and frozen at −80° C. for later processing. After thawing, the cells were sonicated and the yield of cell free VZV quantified by standard plaque assay on ARPE-19 cells. Fold change relative to no treatment (NT) is shown. […] The fold-changes are the average of two independent infections.
In brief, MRC5 cells were infected with VZV at an MOI=1:50. Lipid mixture 1(LM-1) was added to the cells immediately after cell seeding. At 6 hours after infection, up to about 100 μM AA or […] was added to cells together with up to about 10 μM αT. 72 hours after infection, the cells were harvested into PSGC buffer and either frozen at −80° C. and sonicated later for the release of virus (frozen cells) or immediately sonicated after harvesting and supernatants containing the cell-free VZV were frozen at −80° C. (frozen sup.) prior to titration. Cell-free VZV yield was quantified by plaque assay on APRE-19 cells. Fold change relative to no treatment (NT) is shown. The numbers above the bars indicate the amount of virus obtained per ml in the corresponding treatment. The results are set out in FIG. 5.
Briefly, MRC5 cells were infected with VZV at an MOI=1:50. Six hours after infection cells were treated with indicated combinations of lipids plus 10 μM αT. Hexacosanoic acid (HSA) and octacosanoic acid (OSA) were dissolved in 20 mg/ml α-cyclodextin (Sigma-Aldrich) in PBS by sonication and added to a solution of 10 mg/ml fatty acid-free BSA (Sigma-Aldrich) in PBS (1:1, v/v) to give a stock concentration of 10 mM for each fatty acid. HSA, OSA, and DHA were used at 25 μM, and AA was used at 25 μM. Two sets of fatty acid concentrations was used for combination treatments: DHA, AA, and HSA was either added at concentrations of 25 μM, 100 μM, and 25 μM (high), or 10 μM, 50 μM, and 10 μM (low), respectively. 72 hours after infection, the cells were harvested into PSGC buffer, sonicated immediately and the yield of cell free VZV quantified by plaque assay on ARPE-19 cells. Fold change relative to no treatment (NT) is shown. The fold-changes are the average of two independent infections.
Briefly, MRC5 cells were grown in DMEM containing 10% fetal calf serum, 2 mM GlutaMAX) at 35° C. as described in the text. […]

AD169 strain of HCMV = type: cell-based, human cytomegalovirus; settings: for HCMV yield, fold change relative to no treatment (NT): MRC5, 0.5 IU/cell, 96 h after infection
Method: Cells were infected with the AD169 strain of HCMV at a multiplicity of 0.5 infectious units/cell, and immediately following a 2-hour adsorption period, cells were fed with medium (Dulbecco's Modified Eagle Medium, DMEM) containing 10% fetal calf serum plus various fatty acids, cholesterol and carbonyl scavenging compound. At 96 hours post infection, infectious virus in the medium was assayed by fluorescent focus assay using antibody to the HCMV IE1 protein.
Briefly, About 90% confluent MRC5 human fibroblasts were infected with HCMV at a multiplicity of 0.5 IU/cell. Two hours after infection, medium was replaced with fresh medium containing 10% fetal calf serum and either of oleic acid (OA, up to about 100 μM), linoliec acid (LA, up to about 100 μM), a-linolenic acid (LLA, up to about 100 μM), eicosapentaenoic acid (EPA, up to about 75 μM), or docosahexaenoic acid (DHA, up to about 50 μM). The experiment was also performed in the presence of either aminoguanidine (AG, up to about 250 μM) or cholesterol (chol., up to about 13 μM). Virus production at 96 hours after infection was determined by fluorescent focus assay in MRC-5 cells and shown as a fold change relative to no treatment (NT) which was 5×10^5 infectious units. The fold-changes are the average of two independent infections.
Briefly, about 90% confluent MRC5 fibroblasts were infected with HCMV at a multiplicity of 0.5 IU/cell. Two hours after infection, medium was replaced with fresh medium containing 10% fetal calf serum and α-tocopherol (α-T) or aminoguanidine (AG) at indicated concentrations. Virus production at 96 h after infection was determined by fluorescent focus assay in which MRC-5 cells and shown as a fold change relative to no treatment (NT). The fold-changes are the average of two independent infections. Results are set out in FIG. 2.
MRC5 fibroblasts were infected with the AD169 strain of HCMV at a multiplicity of 0.5 infectious units/cell in glutamine/GlutaMAX-free DMEM containing 10% dialyzed FCS. The dialyzed serum was used to completely eliminate the glutamine in the culture medium. The cells received either 2 mM GlutaMAX, which served as a control, or 7 mM α-kg. At 96 hours post infection, infectious virus in the medium was assayed by fluorescent focus assay using antibody to the HCMV IE1 protein.

VZV [2] = assay: Yield of cell-free VZV from infected MRC5 cells, plaque assay on ARPE-19 cells; type: cell-based, varicella zoster virus; settings: for VZV yield relative to no treatment (NT): with 10 μM α-T, 6 h after infection, HSA and DHA 25 μM, AA 100 μM, MOI 1:100, 72 hours post infection; for VZV yield, factor of increase: MOI 1:250, 72 h
[3] = additive alone in medium from 2 h after infection, OA, LA, LLA up to about 100 μM, EPA 75 μM, DHA 50 μM, AG 250 μM, chol. 13 μM
[4] = fatty acid together with aminoguanidine (up to about 250 μM)
[5] = 25 μM fatty acid, absence of αT

SMILES: CCCCCCCC/C=C\CCCCCCCC(=O)O [OA, oleic acid]
- Cytotoxicity / cellular toxicity (MRC5 cells): without causing observable cellular toxicity
- VZV production, factor of reduction (VZV [1]; 100 μM): 2
- HCMV yield, fold change relative to no treatment (NT) (AD169 strain of HCMV; [3]): reduced the yield of HCMV
- HCMV yield, fold change relative to no treatment (NT) (AD169 strain of HCMV; [4]): reduced

SMILES: CCCCC/C=C\C/C=C\CCCCCCCC(=O)O [LA, linoleic acid]
- HCMV yield, fold change relative to no treatment (NT) (AD169 strain of HCMV; [3]): had little effect on the yield
- HCMV yield, fold change relative to no treatment (NT) (AD169 strain of HCMV; [4]): reduced

SMILES: CCCCCCCCCCCCCCCCCCCCCCCCCC(=O)O [HSA, hexacosanoic acid]
- VZV yield relative to no treatment (NT) (VZV [2]): elevated the yield of VZV
- VZV yield relative to no treatment (NT) (VZV [1]): improved virus yields in comparison to no treatment

SMILES: CC/C=C\C/C=C\C/C=C\C/C=C\C/C=C\CCCC(=O)O [EPA, eicosapentaenoic acid]
- HCMV yield, fold change relative to no treatment (NT) (AD169 strain of HCMV; [3]): 2.5 fold

SMILES: N=C(N)NN [aminoguanidine]
- HCMV yield, fold change relative to no treatment (NT) (AD169 strain of HCMV; [3]): about 2.6 fold

SMILES: Cc1c(C)c2c(c(C)c1O)CC[C@@](C)(CCC[C@H](C)CCC[C@H](C)CCCC(C)C)O2 [alpha-tocopherol]
- HCMV production relative to no treatment (NT) (AD169 strain of HCMV; Example 2, FIG. 2, scavenging compound alone from 2 h after infection, MRC5, 96 h): enhances the production of HCMV

SMILES: CC(C)CCC[C@@H](C)[C@H]1CC[C@H]2[C@@H]3CC=C4C[C@@H](O)CC[C@]4(C)[C@H]3CC[C@]12C [cholesterol]
- VZV yield, factor relative to no treatment (VZV [2]; 13 μM cholesterol, MOI 1:100, 72 hr after infection): increased the yield of VZV by a factor of about two
- HCMV yield, fold change relative to no treatment (NT) (AD169 strain of HCMV; [3]): no effect on HCMV yield
- HCMV yield, effect on the enhancing effects of fatty acids (AD169 strain of HCMV; cholesterol (up to about 13 μM) together with fatty acids, MRC5, 96 h after infection): did not improve, and in some cases inhibited

SMILES: CCCCCCCCCCCCCCCCCCCCCCCCCCCC(=O)O [OSA, octacosanoic acid]
- VZV yield relative to no treatment (NT) (VZV [1]): improved virus yields in comparison to no treatment

SMILES: CC/C=C\C/C=C\C/C=C\C/C=C\C/C=C\C/C=C\CCC(=O)O [DHA, docosahexaenoic acid]
- Cytotoxicity / cellular toxicity (MRC5 cells): toxic in the absence or presence of αT
- VZV yield, fold change relative to no treatment (NT) (VZV [1]; [5]): about 1.5 fold
- HCMV yield, fold change relative to no treatment (NT) (AD169 strain of HCMV; [3]): 4.6 fold

SMILES: CC/C=C\C/C=C\C/C=C\CCCCCCCC(=O)O [LLA, α-linolenic acid]
- HCMV yield, fold change relative to no treatment (NT) (AD169 strain of HCMV; [3]): about 1.2 fold
- HCMV yield, fold change relative to no treatment (NT) (AD169 strain of HCMV; [4]): reduced

SMILES: CCCCC/C=C\C/C=C\C/C=C\C/C=C\CCCC(=O)O [AA, arachidonic acid]
- VZV yield, fold change relative to no treatment (NT) (VZV [2]; 100 μM fatty acid in the presence of αT, added 6 hpi, MOI 1:50, 72 h): 5 fold
- VZV yield relative to no treatment (NT) (VZV [2]): elevated the yield of VZV
- VZV yield, fold change relative to no treatment (NT) (VZV [1]; 25 μM fatty acid in the presence of αT): increased the virus yield
- VZV yield, fold change relative to no treatment (NT) (VZV [1]; [5]): enhanced the yield of virus
- VZV yield, fold change relative to no treatment (NT) (VZV [1]; 100 μM fatty acid, absence of αT): inhibited virus production

SMILES: COC(=O)CCC(=O)C(=O)OC [α-kg, dimethyl-α-ketoglutarate]
- VZV replication / titers (VZV [2]; 1 mM α-kg in the absence of GlutaMAX, MOI 1:100, 72 h): unable to support virus replication
- VZV replication / titers (VZV [2]; 2.5 mM α-kg in the absence of GlutaMAX, MOI 1:100, 72 h): unable to support virus replication
- VZV yield, fold increase relative to GlutaMAX (NT; 2 mM) (VZV [2]; 7 mM α-kg alone, glutamine/GlutaMAX-free medium, MOI 1:50, added 6 hpi, 72 h): 3.4 fold
- VZV replication, fold enhancement compared to the addition of 2 mM GlutaMAX (VZV [2]; 7 mM α-kg in the absence of GlutaMAX, MOI 1:100, 72 h): 2.8 fold
- VZV yield, fold increase (VZV [2]; 7 mM α-kg in the presence of 2 mM GlutaMAX, MOI 1:100, added 6 h, 72 h): about 2.1 fold
- Concentration required to optimally support the replication of VZV (VZV [2]; MRC5, MOI 1:100, 72 h): > 2.5 mM
- VZV yield, factor of increase (VZV [2]; glutamine-free medium supplemented with dialyzed serum (10% dialyzed FCS)): ~9.7
- VZV yield, factor of increase (VZV [2]; glutamine/GlutaMAX-free medium containing normal serum (10% FCS)): ~3.7 fold
- Production of cell-free HCMV, fold increase relative to 2 mM GlutaMAX control (AD169 strain of HCMV; 7 mM α-kg replacing glutamine, glutamine/GlutaMAX-free DMEM, 10% dialyzed FCS, 0.5 infectious units/cell, 96 hours post infection): 4.3 fold
